# According to US4442044A, “Process for preparing monoesters and diesters of N-alkyl substituted amino methyl phosphonic acid” (priority 1983, dated 1984):
# Experiments:
# Assay in all cases: post-emergent herbicidal activity, greenhouse
# Assay type in all cases: in vivo
# Morningglory = tested on: Morningglory
# Outline: (§1)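 Post-emergence foliar spray at tabulated application rates, using aliquots of a 1.0% stock in acetone, THF or water plus ~0.4% emulsifier, applied to 2–3-week-old greenhouse plants. Plant injury was rated relative to controls roughly two and four weeks after treatment.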
# Downy Brome = tested on: Downy Brome
# Outline: as §1
# Soybean = conditions: Table II
# Outline: as §1
# Rice = conditions: Table II
# Outline: as §1
# Sorghum = conditions: Table II
# Outline: as §1
# Velvetleaf = tested on: Velvetleaf
# Outline: as §1
# Crabgrass = conditions: Table II, 4 WAT
# Outline: as §1
# Lambsquarters = tested on: Lambsquarters
# Outline: as §1
# Johnsongrass = conditions: Table I, 4 WAT
# Outline: as §1
# Smartweed = tested on: Smartweed
# Outline: as §1
# Quackgrass = conditions: Table I, 4 WAT
# Outline: as §1
# Hemp Sesbania = conditions: Table II
# Outline: as §1
# Panicum Spp = conditions: Table II
# Outline: as §1
# Wheat = conditions: Table II
# Outline: as §1
# Yellow Nutsedge = conditions: Table I, 4 WAT
# Outline: as §1
# Canada Thistle = conditions: Table I, 4 WAT
# Outline: as §1
# Wild Buckwheat = conditions: Table II
# Outline: as §1
# Barnyardgrass = tested on: Barnyardgrass
# Outline: as §1
# Cocklebur = tested on: Cocklebur
# Outline: as §1
# Sugar Beet = conditions: Table II
# Outline: as §1
smiles,measurement,setting,value
"CCOC(=O)CNCP(=O)(O)OCC(Cl)(Cl)Cl [Example 27, glycine, N-[[hydroxy(2,2,2-trichloroethoxy)-phosphinyl]methyl]-, ethyl ester]",post-emergent herbicidal activity index,"Morningglory; Table I, 4 WAT, 5.6 kg/h",2 (50-74% control)
same,post-emergent herbicidal activity index,"Morningglory; Table I, 4 WAT, 11.2 kg/h",2 (50-74% control)
same,post-emergent herbicidal activity index,"Morningglory; Table II, 2 WAT, 0.01 kg/h",0 (0-24% control)
same,post-emergent herbicidal activity index,"Morningglory; Table II, 2 WAT, 0.06 kg/h",0 (0-24% control)
same,post-emergent herbicidal activity index,"Morningglory; Table II, 4 WAT, 0.28 kg/h",2 (50-74% control)
same,post-emergent herbicidal activity index,"Morningglory; Table II, 4 WAT, 1.12 kg/h",2 (50-74% control)
same,post-emergent herbicidal activity index,"Morningglory; Table II, 4 WAT, 5.6 kg/h",2 (50-74% control)
same,post-emergent herbicidal activity index,"Downy Brome; Table I, 4 WAT, 5.6 kg/h",0 (0-24% control)
same,post-emergent herbicidal activity index,"Downy Brome; Table I, 4 WAT, 11.2 kg/h",0 (0-24% control)
same,post-emergent herbicidal activity index,"Downy Brome; Table II, 2 WAT, 0.01 kg/h",0 (0-24% control)
same,post-emergent herbicidal activity index,"Downy Brome; Table II, 2 WAT, 0.06 kg/h",0 (0-24% control)
same,post-emergent herbicidal activity index,"Downy Brome; Table II, 4 WAT, 0.28 kg/h",3 (75-99% control)
same,post-emergent herbicidal activity index,"Downy Brome; Table II, 4 WAT, 1.12 kg/h",3 (75-99% control)
same,post-emergent herbicidal activity index,"Downy Brome; Table II, 4 WAT, 5.6 kg/h",3 (75-99% control)
same,post-emergent herbicidal activity index,"Soybean; 2 WAT, 0.01 kg/h",0 (0-24% control)
same,post-emergent herbicidal activity index,"Soybean; 2 WAT, 0.06 kg/h",0 (0-24% control)
same,post-emergent herbicidal activity index,"Soybean; 4 WAT, 0.28 kg/h",2 (50-74% control)
same,post-emergent herbicidal activity index,"Soybean; 4 WAT, 1.12 kg/h",2 (50-74% control)
same,post-emergent herbicidal activity index,"Soybean; 4 WAT, 5.6 kg/h",3 (75-99% control)
same,post-emergent herbicidal activity index,"Rice; 2 WAT, 0.01 kg/h",0 (0-24% control)
same,post-emergent herbicidal activity index,"Rice; 2 WAT, 0.06 kg/h",0 (0-24% control)
same,post-emergent herbicidal activity index,"Rice; 4 WAT, 0.28 kg/h",3 (75-99% control)
same,post-emergent herbicidal activity index,"Rice; 4 WAT, 1.12 kg/h",3 (75-99% control)
same,post-emergent herbicidal activity index,"Rice; 4 WAT, 5.6 kg/h",3 (75-99% control)
same,post-emergent herbicidal activity index,"Sorghum; 2 WAT, 0.01 kg/h",0 (0-24% control)
same,post-emergent herbicidal activity index,"Sorghum; 2 WAT, 0.06 kg/h",0 (0-24% control)
same,post-emergent herbicidal activity index,"Sorghum; 4 WAT, 0.28 kg/h",2 (50-74% control)
same,post-emergent herbicidal activity index,"Sorghum; 4 WAT, 1.12 kg/h",2 (50-74% control)
same,post-emergent herbicidal activity index,"Sorghum; 4 WAT, 5.6 kg/h",3 (75-99% control)
same,post-emergent herbicidal activity index,"Velvetleaf; Table I, 4 WAT, 5.6 kg/h",1 (25-49% control)
same,post-emergent herbicidal activity index,"Velvetleaf; Table I, 4 WAT, 11.2 kg/h",2 (50-74% control)
same,post-emergent herbicidal activity index,"Velvetleaf; Table II, 2 WAT, 0.01 kg/h",0 (0-24% control)
same,post-emergent herbicidal activity index,"Velvetleaf; Table II, 2 WAT, 0.06 kg/h",0 (0-24% control)
same,post-emergent herbicidal activity index,"Velvetleaf; Table II, 4 WAT, 0.28 kg/h",1 (25-49% control)
same,post-emergent herbicidal activity index,"Velvetleaf; Table II, 4 WAT, 1.12 kg/h",1 (25-49% control)
same,post-emergent herbicidal activity index,"Velvetleaf; Table II, 4 WAT, 5.6 kg/h",1 (25-49% control)
same,post-emergent herbicidal activity index,Crabgrass; 1.12 kg/h,3 (75-99% control)
same,post-emergent herbicidal activity index,Crabgrass; 5.6 kg/h,4 (100% control)
same,post-emergent herbicidal activity index,"Lambsquarters; Table I, 4 WAT, 5.6 kg/h",3 (75-99% control)
same,post-emergent herbicidal activity index,"Lambsquarters; Table I, 4 WAT, 11.2 kg/h",3 (75-99% control)
same,post-emergent herbicidal activity index,"Lambsquarters; Table II, 2 WAT, 0.01 kg/h",0 (0-24% control)
same,post-emergent herbicidal activity index,"Lambsquarters; Table II, 2 WAT, 0.06 kg/h",0 (0-24% control)
same,post-emergent herbicidal activity index,"Lambsquarters; Table II, 4 WAT, 0.28 kg/h",1 (25-49% control)
same,post-emergent herbicidal activity index,"Lambsquarters; Table II, 4 WAT, 1.12 kg/h",2 (50-74% control)
same,post-emergent herbicidal activity index,"Lambsquarters; Table II, 4 WAT, 5.6 kg/h",3 (75-99% control)
same,post-emergent herbicidal activity index,Johnsongrass; 5.6 kg/h,2 (50-74% control)
same,post-emergent herbicidal activity index,Johnsongrass; 11.2 kg/h,0 (0-24% control)
same,post-emergent herbicidal activity index,"Smartweed; Table I, 4 WAT, 5.6 kg/h",2 (50-74% control)
same,post-emergent herbicidal activity index,"Smartweed; Table I, 4 WAT, 11.2 kg/h",2 (50-74% control)
same,post-emergent herbicidal activity index,"Smartweed; Table II, 2 WAT, 0.01 kg/h",0 (0-24% control)
same,post-emergent herbicidal activity index,"Smartweed; Table II, 2 WAT, 0.06 kg/h",0 (0-24% control)
same,post-emergent herbicidal activity index,"Smartweed; Table II, 4 WAT, 0.28 kg/h",3 (75-99% control)
same,post-emergent herbicidal activity index,"Smartweed; Table II, 4 WAT, 1.12 kg/h",2 (50-74% control)
same,post-emergent herbicidal activity index,"Smartweed; Table II, 4 WAT, 5.6 kg/h",3 (75-99% control)
same,post-emergent herbicidal activity index,Quackgrass; 5.6 kg/h,1 (25-49% control)
same,post-emergent herbicidal activity index,Quackgrass; 11.2 kg/h,1 (25-49% control)
same,post-emergent herbicidal activity index,"Hemp Sesbania; 2 WAT, 0.01 kg/h",0 (0-24% control)
same,post-emergent herbicidal activity index,"Hemp Sesbania; 2 WAT, 0.06 kg/h",0 (0-24% control)
same,post-emergent herbicidal activity index,"Hemp Sesbania; 4 WAT, 0.28 kg/h",1 (25-49% control)
same,post-emergent herbicidal activity index,"Hemp Sesbania; 4 WAT, 1.12 kg/h",2 (50-74% control)
same,post-emergent herbicidal activity index,"Hemp Sesbania; 4 WAT, 5.6 kg/h",3 (75-99% control)
same,post-emergent herbicidal activity index,"Panicum Spp; 2 WAT, 0.01 kg/h",0 (0-24% control)
same,post-emergent herbicidal activity index,"Panicum Spp; 2 WAT, 0.06 kg/h",0 (0-24% control)
same,post-emergent herbicidal activity index,"Panicum Spp; 4 WAT, 0.28 kg/h",3 (75-99% control)
same,post-emergent herbicidal activity index,"Panicum Spp; 4 WAT, 1.12 kg/h",4 (100% control)
same,post-emergent herbicidal activity index,"Panicum Spp; 4 WAT, 5.6 kg/h",4 (100% control)
same,post-emergent herbicidal activity index,"Wheat; 2 WAT, 0.01 kg/h",0 (0-24% control)
same,post-emergent herbicidal activity index,"Wheat; 2 WAT, 0.06 kg/h",0 (0-24% control)
same,post-emergent herbicidal activity index,"Wheat; 4 WAT, 0.28 kg/h",3 (75-99% control)
same,post-emergent herbicidal activity index,"Wheat; 4 WAT, 1.12 kg/h",2 (50-74% control)
same,post-emergent herbicidal activity index,"Wheat; 4 WAT, 5.6 kg/h",4 (100% control)
same,post-emergent herbicidal activity index,Yellow Nutsedge; 5.6 kg/h,0 (0-24% control)
same,post-emergent herbicidal activity index,Yellow Nutsedge; 11.2 kg/h,2 (50-74% control)
same,post-emergent herbicidal activity index,Canada Thistle; 5.6 kg/h,1 (25-49% control)
same,post-emergent herbicidal activity index,Canada Thistle; 11.2 kg/h,2 (50-74% control)
same,post-emergent herbicidal activity index,"Wild Buckwheat; 2 WAT, 0.01 kg/h",0 (0-24% control)
same,post-emergent herbicidal activity index,"Wild Buckwheat; 2 WAT, 0.06 kg/h",0 (0-24% control)
same,post-emergent herbicidal activity index,"Wild Buckwheat; 4 WAT, 0.28 kg/h",2 (50-74% control)
same,post-emergent herbicidal activity index,"Wild Buckwheat; 4 WAT, 1.12 kg/h",2 (50-74% control)
same,post-emergent herbicidal activity index,"Wild Buckwheat; 4 WAT, 5.6 kg/h",2 (50-74% control)
same,post-emergent herbicidal activity index,"Barnyardgrass; Table I, 4 WAT, 5.6 kg/h",3 (75-99% control)
same,post-emergent herbicidal activity index,"Barnyardgrass; Table I, 4 WAT, 11.2 kg/h",3 (75-99% control)
same,post-emergent herbicidal activity index,"Barnyardgrass; Table II, 2 WAT, 0.01 kg/h",0 (0-24% control)
same,post-emergent herbicidal activity index,"Barnyardgrass; Table II, 2 WAT, 0.06 kg/h",0 (0-24% control)
same,post-emergent herbicidal activity index,"Barnyardgrass; Table II, 4 WAT, 0.28 kg/h",3 (75-99% control)
same,post-emergent herbicidal activity index,"Barnyardgrass; Table II, 4 WAT, 1.12 kg/h",3 (75-99% control)
same,post-emergent herbicidal activity index,"Barnyardgrass; Table II, 4 WAT, 5.6 kg/h",3 (75-99% control)
same,post-emergent herbicidal activity index,"Cocklebur; Table I, 4 WAT, 5.6 kg/h",2 (50-74% control)
same,post-emergent herbicidal activity index,"Cocklebur; Table I, 4 WAT, 11.2 kg/h",2 (50-74% control)
same,post-emergent herbicidal activity index,"Cocklebur; Table II, 2 WAT, 0.01 kg/h",0 (0-24% control)
same,post-emergent herbicidal activity index,"Cocklebur; Table II, 2 WAT, 0.06 kg/h",0 (0-24% control)
same,post-emergent herbicidal activity index,"Cocklebur; Table II, 4 WAT, 0.28 kg/h",2 (50-74% control)
same,post-emergent herbicidal activity index,"Cocklebur; Table II, 4 WAT, 1.12 kg/h",2 (50-74% control)
same,post-emergent herbicidal activity index,"Cocklebur; Table II, 4 WAT, 5.6 kg/h",3 (75-99% control)
same,post-emergent herbicidal activity index,"Sugar Beet; 2 WAT, 0.01 kg/h",0 (0-24% control)
same,post-emergent herbicidal activity index,"Sugar Beet; 2 WAT, 0.06 kg/h",0 (0-24% control)
same,post-emergent herbicidal activity index,"Sugar Beet; 4 WAT, 0.28 kg/h",2 (50-74% control)
same,post-emergent herbicidal activity index,"Sugar Beet; 4 WAT, 1.12 kg/h",2 (50-74% control)
same,post-emergent herbicidal activity index,"Sugar Beet; 4 WAT, 5.6 kg/h",3 (75-99% control)
